Measured values taken from patent publication US20170056351A1, “COMPOSITION FOR INDUCING TUMOR IMMUNITY” (UNIVERSITY OF OCCUPATIONAL AND ENVIRONMENTAL HEALTH, JAPAN, priority 2014, published 2017).

Assays:
9L cells = experiment: Intracellular localization of ROS 12 hours after ionizing radiation (DCFD, confocal laser scanning microscope), 9L; format: cell-based, rat; details: pre-treatment with 1 mM 5-ALA 4 hours before 10 Gy, 12 hours after irradiation, vs no 5-ALA
Protocol: Intracellular ROS production was detected by our method using DCFD and a confocal laser scanning microscope (LMS5 Pascal; Carl Zeiss, Jena, Germany) (Yamamoto J, Ogura S, Tanaka T, et al: Radiosensitizing effect of 5-aminolevulinic acid-induced protoporphyrin IX in glioma cells in vitro. Oncol Rep 27: 1748-1752, 2012.). Briefly, the cells were seeded in a fresh medium containing 1 mM 5-ALA in a 35-mm glass-bottom culture dish (Asahi Techno Glass, Tokyo, Japan), and were then incubated at 37° C. for 4 hours in a dark room. Thereafter, the cells were washed with PBS, and were then exposed to an ionizing radiation of 10 Gy. Twelve hours after the ionizing irradiation, the cells were washed with PBS twice, and were then incubated together with 10 μM DCFD for 15 minutes. Thereafter, the cells were washed with PBS twice, and immediately after the washing, the resulting cells were observed. DCFD fluorescence (excitation: 488 nm; radiation: 505-530 nm band-pass filter) was imaged on a confocal laser scanning microscope. All procedures were carried out in a dark room.

U251 cells = experiment: Intracellular level of 5-ALA-induced PpIX by flow cytometric analysis, U251; format: cell-based, human; details: average±SE
Protocol: Two types of rat glioma cell lines (9L and C6) and human glioma cell lines (U251 and T98G) were used. Before use, 9L and T98G were cultured in RPMI-1640 at 37° C. for several days, whereas C6 and U251 were cultured in 10% FBS-added Dulbecco's modified Eagle's medium (DMEM) at 37° C. for several days. These cell lines were maintained at 37° C. in 5% CO2 in a humidified incubator. The cells were subcultured at an exponential growth phase thereof, using 0.05% trypsin solution containing 0.5 mM ethylenediamine tetraacetate. 70% confluent cells were used in the subsequent experiments. 5-ALA was dissolved in RPMI-1640 (9L and T98G), or in 10% FBS-added DMEM (C6 and U251), to a final concentration of 1 mM.
(§1) The cells were seeded on a 100-mm culture dish, and were then cultured. The cells were incubated in a complete medium containing 1 mM 5-ALA for 4 hours, and were then washed with PBS. The resulting cells were peeled from the bottom layer by a trypsin treatment, and were then recovered by centrifugation (400×g, 3 min, and 4° C.). Immediately after the recovery, the cells were re-suspended in cold PBS/FBS, and were then analyzed using a flow cytometer (EC800; Sony Biotechnology, Tokyo, Japan). Generally, 30,000 cells contained in each sample were evaluated. Using 488-nm argon ion laser, fluorescence was excited from intracellular PpIX, and the fluorescence was then detected using a 640/30 nm band-pass filter. In order to prevent photoactivation of 5-ALA-induced PpIX, all procedures were carried out in a dark room. The flow cytometric data were analyzed using FlowJo (Tree Star Inc., Ashland, Oreg., USA). The mean fluorescence intensity (MFI) of PpIX fluorescence in the 5-ALA-treated cells, with respect to that of 5-ALA-not-treated cells, was calculated for each cell line.

C6 cells = experiment: Intracellular level of 5-ALA-induced PpIX by flow cytometric analysis, C6; format: cell-based, rat; details: 1 mM 5-ALA for 4 hours, relative to 5-ALA-not-treated cells, average±SE
Protocol: Two types of rat glioma cell lines (9L and C6) and human glioma cell lines (U251 and T98G) were used. Before use, 9L and T98G were cultured in RPMI-1640 at 37° C. for several days, whereas C6 and U251 were cultured in 10% FBS-added Dulbecco's modified Eagle's medium (DMEM) at 37° C. for several days. These cell lines were maintained at 37° C. in 5% CO2 in a humidified incubator. The cells were subcultured at an exponential growth phase thereof, using 0.05% trypsin solution containing 0.5 mM ethylenediamine tetraacetate. 70% confluent cells were used in the subsequent experiments. […]
as §1, with “The cells were incubated in a complete medium containing 1 mM 5-ALA for 4 hours, and were then washed with PBS. The resulting cells were peeled from the bottom layer by a trypsin treatment, and were then recovered by centrifugation (400×g, 3 min, and 4° C.).” left out, “In order to prevent photoactivation of 5-ALA-induced PpIX, all procedures were carried out in a dark room.” left out

NCC(=O)CCC(=O)O [ALA, 5-aminolevulinic acid]
DCF fluorescence in the cytoplasm (confocal) (9L cells): apparently increased | relative MFI of PpIX fluorescence (U251 cells; 1 mM 5-ALA for 4 hours, relative to 5-ALA-not-treated cells): 37.6±0.12 | relative MFI of PpIX fluorescence after ionizing irradiation (U251 cells; 4 hours after ionizing irradiation): 41.6±0.20 | relative MFI of PpIX fluorescence after ionizing irradiation (U251 cells; 12 hours after ionizing irradiation): 44.2±3.67 | relative MFI of PpIX fluorescence after ionizing irradiation (U251 cells; 24 hours after ionizing irradiation): 51.1±3.76 | relative MFI of PpIX fluorescence (C6 cells): 20.2±0.56
